# System: I/H-induced ET-1 release in isolated perfused guinea pig lungs
# Experiment: Isolated Perfused Guinea Pig Lung Method (ischemia/hypoxia, I/H)
# Type: in vivo
# Settings: iv, 10 mg/kg
# Protocol: The method is as described by Vemulapalli et al., in J. PharmacoL Exp. Therap., 262, 3 (1992), pp. 1062-1069. Briefly, male Dunkin-Hartley guinea pigs (400-600 g) are anesthetized with pentobarbital 30 mg/kg, ip. The trachea is cannulated to facilitate respiration. The right jugular vein is cannulated to administer saline vehicle or test compound, or compounds are administered orally or subcutaneously. Ten minutes after the administration of saline vehicle or test compound, a thoracotomy is performed and the trachea, lungs and heart are removed intact and placed in warmed Tyrode's buffer (34°-35° C.) of the following composition in mM: NaCl 120, KCl 4.8, MgSO4.7H2 O 1.2, KH2 PO4 1.2, NaHCO3 25, CaCl2.2H2 O […], glucose 11 and BSA 0.5%. The pulmonary artery and trachea are cannulated and the lungs are mounted on a perfusion apparatus. Lungs are perfused at a rate of 3.2 ml/min via the pulmonary artery with oxygenated (95% O 2 and 5% CO2) Tyrode's solution maintained at 34°-35° C. The lungs are mechanically ventilated with room air with a volume of 2.5 ml/stroke and 50 strokes/min. Pulmonary insufflation pressure (PIP) is monitored through a side arm of the perfusion apparatus with a Statham pressure transducer and recorded on a Grass polygraph. Lungs are allowed to stabilize for 15 min. Lung effluents (50 ml) are collected every 15 min into chilled polypropylene centrifuge tubes (Corning) containing 100 μl each of aprotinin (200 kallikrein inhibitory units/ml) and soybean trypsin inhibitor (20N-α-benzoyl-L-arginine ethyl ester units/ml). Ischemia-hypoxia (I/H) is produced by cessation of ventilation and perfusion for 15 min followed by reperfusion and reventilation for 60 min. At the end of the experiment, the lungs are tested for cardiopulmonary reactivity by challenging with 5-hydroxy-tryptamine (0.5 mg) directly into the lungs via a pulmonary artery cannula.
# In a separate study, anesthetized guinea pigs are administered saline vehicle or test compound. Ten minutes later, the lungs are removed and mounted on a perfusion apparatus as described above. After an equilibration period of 15 min, BET-1 (30 μg over 15 min) or ET-1 (0.6 μg over 15 min) is infused directly into the perfusion medium and the effects on PIP in vehicle and test compound-treated guinea pig lungs are assessed.
# FIGS. 3 to 6 show the results of four compounds of the invention on I/H-induced ET-1 release in isolated perfused guinea pig lungs. The compounds include Compounds A and B, identified above, and: […]
row,SMILES,elevation in PIP produced by I/H (FIG. 5)
1,CC(C)C(CP(=O)(O)C(Cc1ccccc1)NC(=O)C(CCCCN)NS(C)(=O)=O)C(=O)N[C@@H](Cc1c[nH]c2ccccc12)C(=O)O (stereo partly drawn) [Compound C],attenuated

# Molecular target: T1, ECE (Cavia porcellus, UniProt P97739)
# T1 construct: tissue Keystone Biologicals, Cleveland, Ohio; host or cells: frozen guinea pig lungs; lubrol PX-treated lung membranes
# T1 sequence (P97739 1-754): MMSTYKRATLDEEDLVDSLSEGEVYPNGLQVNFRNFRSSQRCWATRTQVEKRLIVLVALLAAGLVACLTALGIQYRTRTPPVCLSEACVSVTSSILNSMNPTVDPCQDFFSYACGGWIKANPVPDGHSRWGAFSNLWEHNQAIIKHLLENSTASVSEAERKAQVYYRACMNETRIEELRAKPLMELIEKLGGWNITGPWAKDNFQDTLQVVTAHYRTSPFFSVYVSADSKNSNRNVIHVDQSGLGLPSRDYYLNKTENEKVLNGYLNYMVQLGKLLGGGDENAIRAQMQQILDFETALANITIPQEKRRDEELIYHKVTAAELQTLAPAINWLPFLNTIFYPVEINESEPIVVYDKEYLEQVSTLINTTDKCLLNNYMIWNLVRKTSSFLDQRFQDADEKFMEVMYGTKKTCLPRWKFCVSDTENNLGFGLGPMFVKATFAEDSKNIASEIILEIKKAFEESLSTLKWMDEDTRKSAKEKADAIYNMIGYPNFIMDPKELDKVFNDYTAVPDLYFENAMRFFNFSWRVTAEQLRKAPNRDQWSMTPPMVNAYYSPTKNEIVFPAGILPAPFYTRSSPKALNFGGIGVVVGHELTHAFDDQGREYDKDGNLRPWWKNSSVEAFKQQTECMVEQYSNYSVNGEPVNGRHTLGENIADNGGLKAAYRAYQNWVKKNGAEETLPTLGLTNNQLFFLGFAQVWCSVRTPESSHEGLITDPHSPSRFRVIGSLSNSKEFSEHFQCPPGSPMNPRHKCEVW
# Experiment: In vitro ECE assay (inhibition of [125I]BET-1 to [125I]ET-1 conversion, lubrol-treated guinea pig lung membrane)
# Type: biochemical
# Settings: L-GPLGM, 2 h preincubation at 4° C., 500 pM [125I]BET-1, table of examples, read-out: ECE IC50
# From the text: The ECE assay is based on the quantitative determination of [^125 l]ET-1 released from [^125 l]BET-1 labeled on Tyrosine-13 by binding to the membrane-bound ET receptor. […] GPLGM was also found to contain a high density of ET receptors. Thus, this preparation was utilized as a source of both ECE and a saturating concentration of ET receptors for the quantitative determination of [251l]ET-1 from the conversion of [125l ]BET-1. Under selected experimental conditions of the ECE assay, specific [125l]ET-1 bound was directly related to ECE activity. Assays were carried out in the presence of varying concentrations of test compounds to evaluate their efficacy in inhibiting ECE activity.
# Frozen guinea pig lungs (Keystone Biologicals,Cleveland, Ohio) are weighed and homogenized in 10 times gram tissue weight of solution A (50 mM Tris-HCl, pH 7.4, 0.25M sucrose, and 2 mM EDTA) using a Polytron tissue homogenizer (probe PTA-20S). Homogenization is repeated four times at speed setting seven each for 10 s and with 5-8 min intervals on ice in between homogenization. Homogenates are spun for 30 min at 2000 g (4100 rpm in an SS34 rotor or 3800 rpm in an SA-600 rotor). Supernatants containing membranes are carefully decanted and saved. Pellets are rehomogenized in solution A as described, and homogenates are spun at 2000 g for 30 min. Supernatants are removed, mixed with the supernatants from the first spin, and spun at 37000 rpm in a 45 Ti rotor (107022 g) for 60 min. Pellets containing membranes are suspended in solution B (10 mM Tris-HCl, pH 7.4, and 0.125M sucrose) using a Dounce homogenizer. Samples are divided into 1 ml fractions, rapidly frozen in a dry ice methanol bath, and stored at -80° C. All steps are carried out at 4° C.
# GPLGM fractions prepared as described above are thawed and resuspended at a concentration of 1 mg membrane protein/mL in a solution containing 0.06% lubrol PX, 50 mM Tris-HCl (pH 7.4), and 100 mM NaCl. Stir the mixture for 1 h and then spin for 1 h at 37000 rpm in a 45 Ti rotor (107022 g). Discard the supernatants and resuspend the pellets in a solution containing 50 mM Tris-HCl (pH 7.4), and 100 mM NaCl using a Dounce homogenizer, and adjust the final volume to half the original volume. Spin the homogenates for 1 h at 37000 rpm in a 45 Ti rotor (107022 g). Suspend the membrane pellets in solution B and treat as described above. All steps are performed at 4° C.
# ECE Assay: Samples of L-GPLGM containing 20 μg protein are incubated in a solution containing 100 mM Tris-HCl (pH 7), 100 mM NaCl, and 5 mg/ml BSA (Fraction V, 98-99% albumin) (Sigma Chemical Co.) at a final reaction volume of 100 μL. The ECE assay is initiated by the addition of [^125 l]BET-1 to obtain a final concentration of 500 pM. Reactions are carried out for 30 min at 37° C. Reactions are terminated by addition of 4 mL of solution C (10 mM Tris-HCl, pH 7.4, and 150 mM NaCl) at 4° C. followed by rapid filtration on Whatman GF/B glass microfiber filters. Filters are presoaked for 1 h at 4° C. in a solution containing 50 mM Tris-HCl (pH 7.4), 10 mg/mL BSA, and 0.1% sodium azide. Wash test tubes and filters four times with 4 mL of solution C at 4° C., and count radioactivity retained on the filters in a γ counter. Non-specific binding is determined in the presence of 1 μM of unlabeled ET-1 (Peninsula Laboratories, Inc., Belmont, Calif.) in the reaction mixture. All reactions are performed in duplicate.
# To test the effect of test compounds on ECE activity, ECE assays are carried out in the presence of varying concentrations of the compounds. Assays are initiated following a 2 h incubation of L-GPLGM with the compound at 4° C. ECE activity in the presence of compounds is expressed as a percentage of control ECE activity of the membrane preparation, which is determined simultaneously.
row,IC50 [nM],SMILES
1,55,CC(C)CC(NC(=O)[C@H](CCCCNC(=O)OCc1ccccc1)NS(C)(=O)=O)P(=O)(O)CC1(C(=O)N[C@@H](Cc2c[nH]c3ccccc23)C(=O)O)CCCC1 (stereo partly drawn) [Example 3D]
2,100,CS(=O)(=O)N[C@@H](CCCCN)C(=O)NC(Cc1ccc(O)cc1)P(=O)(O)CC1(C(=O)N[C@@H](Cc2c[nH]c3ccccc23)C(=O)O)CCCC1 (stereo partly drawn) [Example 5B]
3,200,CC(C)C(CP(=O)(O)C(Cc1ccccc1)NC(=O)[C@H](CCC(N)=O)NC(=O)OCc1ccccc1)C(=O)N[C@@H](Cc1c[nH]c2ccccc12)C(=O)O (stereo partly drawn) [Example 10C]
4,1400,CC(C)CC(CP(=O)(O)C(CC(C)C)NC(=O)[C@H](CCCCNC(=O)OCc1ccccc1)NS(C)(=O)=O)C(=O)N[C@@H](Cc1c[nH]c2ccccc12)C(=O)O (stereo partly drawn) [Example 10B]
5,85,O=C(NC(Cc1ccc(O)cc1)P(=O)(O)CC1(C(=O)N[C@@H](Cc2c[nH]c3ccccc23)C(=O)O)CCCC1)OCc1ccccc1 (stereo partly drawn) [Example 8]
6,40,COc1ccc(CC(NC(=O)[C@H](CCCCN)NS(C)(=O)=O)P(=O)(O)CC2(C(=O)N[C@@H](Cc3c[nH]c4ccccc34)C(=O)O)CCCC2)cc1 (stereo partly drawn) [Example 5A]
7,55,CS(=O)(=O)N[C@@H](CCCCNC(=O)OCc1ccccc1)C(=O)NC(Cc1ccc(O)cc1)P(=O)(O)CC1(C(=O)N[C@@H](Cc2c[nH]c3ccccc23)C(=O)O)CCCC1 (stereo partly drawn) [Example 3B]

# Same assay, conditions: L-GPLGM, table of additional compounds, read-out: IC50 (in vitro ECE inhibition activity)
row,IC50 [nM],SMILES
1,390,"CC(C)C(CP(=O)(O)C(Cc1ccccc1)NC(=O)C(CCCCNC(=O)OCc1ccccc1)NS(C)(=O)=O)C(=O)N[C@@H](Cc1c[nH]c2ccccc12)C(=O)O (single isomer, unassigned) [listing 1 of 2 here]"
2,300,"CC(C)CC(CP(=O)(O)C(Cc1ccc2ccccc2c1)NC(=O)OCc1ccccc1)C(=O)N[C@@H](Cc1c[nH]c2ccccc12)C(=O)O (stereo partly drawn) [Cbz, 2-naphthylmethyl, H, iso-butyl]"
3,500,"O=C(NC(Cc1ccc2ccccc2c1)P(=O)(O)CC1(C(=O)N[C@@H](Cc2c[nH]c3ccccc23)C(=O)O)CCCC1)OCc1ccccc1 (stereo partly drawn) [Cbz, 2-naphthylmethyl, R3 + R4 = (CH2)4]"
4,190,"O=C(NC(Cc1ccccc1)P(=O)(O)CC1(C(=O)N[C@@H](Cc2c[nH]c3ccccc23)C(=O)O)CCCC1)OCc1ccccc1 (stereo partly drawn) [Cbz, C6 H5CH2, R3 + R4 = (CH2)4]"
5,500,CC(C)CC(CP(=O)(O)C(Cc1ccccc1)NC(=O)C(CCCCNC(=O)OCc1ccccc1)NS(C)(=O)=O)C(=O)N[C@@H](Cc1c[nH]c2ccccc12)C(=O)O (stereo partly drawn)
6,230,CC(C)CC(CP(=O)(O)C(Cc1ccc2ccccc2c1)NC(=O)C(CCCCNC(=O)OCc1ccccc1)NC(=O)C(CC(C)C)NS(C)(=O)=O)C(=O)N[C@@H](Cc1c[nH]c2ccccc12)C(=O)O (stereo partly drawn)
7,1500,"CC(C)C(CP(=O)(O)C(Cc1ccccc1)NC(=O)C(CCCCNC(=O)OCc1ccccc1)NS(C)(=O)=O)C(=O)N[C@@H](Cc1c[nH]c2ccccc12)C(=O)O (single isomer, unassigned) [listing 2 of 2 here]"
8,500,CC(C)C(CP(=O)(O)C(Cc1ccccc1)NC(=O)C(CCCCN)NS(C)(=O)=O)C(=O)N[C@@H](Cc1c[nH]c2ccccc12)C(=O)O (stereo partly drawn)
9,1600,CCC(C)C(N)C(=O)NC(Cc1ccccc1)P(=O)(O)CC(C(=O)N[C@@H](Cc1c[nH]c2ccccc12)C(=O)O)C(C)C (stereo partly drawn)
10,1400,CC(C)CC(CP(=O)(O)C(CC(C)C)NC(=O)C(CCCCNC(=O)OCc1ccccc1)NS(C)(=O)=O)C(=O)N[C@@H](Cc1c[nH]c2ccccc12)C(=O)O (stereo partly drawn)
11,400,"CC(C)CC(CP(=O)(O)C(CCCCN)NC(=O)OCc1ccccc1)C(=O)N[C@@H](Cc1c[nH]c2ccccc12)C(=O)O (stereo partly drawn) [Cbz, NH 2(CH2)4, H, iso-butyl]"
12,160,CC(C)CC(CP(=O)(O)C(Cc1ccccc1)NC(=O)C(CC(C)C)NC(=O)OCc1ccccc1)C(=O)N[C@@H](Cc1c[nH]c2ccccc12)C(=O)O (stereo partly drawn)
13,400,CCC(C)C(NC(=O)OCc1ccccc1)C(=O)NC(Cc1ccccc1)P(=O)(O)CC(C(=O)N[C@@H](Cc1c[nH]c2ccccc12)C(=O)O)C(C)C (stereo partly drawn)
